Assay results as given in PMC9714824, “Hexapeptides from mammalian inhibitory hormone hunt activate and inactivate nematode reproduction” (PLOS ONE, 2022).

How the values were obtained:
[1] = system: human marrow derived mesenchymal stem cells (hMSCs); assay: Peptide immobilisation studies, hMSC proliferation (CyQuant) and FACS; type: cell-based; conditions: alanine substitution study; for Mean cell number: N-terminally tethered, seeding 5,000 cells per well, CyQuant, mean +/− SEM, n = 3
From the text: Could the antiproliferative activity in vitro of EPL001 in solution be more predictably evoked and investigated more readily if the peptide is instead tethered to the cell culture’s substratum? […] In the first study EPL001 was immobilised by either its N terminus or C terminus and human stem cells exposed accordingly. This followed a confirmation of dissolved EPL001’s antiproliferative activity in the same laboratory (JAH). In the second study, aa sections of EPL001 were substituted with alanine strings prior to tethering, to define a functional biological motif. Into the base of each well of a 24-well plate was inserted a glass coverslip (13mm diameter, borosilicate glass, SLS, Nottingham, UK), upon the upper surface of which had been immobilised an individual peptide using a bioconjugate technique. During preparation of the coverslips, the surfaces were modified with carboxyl (−COOH) or amine (−NH2) groups separately using a published method. The carboxyl on the coverslips or at the end of the peptide sequence were reacted with NHS in the presence of EDC, resulting in a semi-stable NHS ester, which could then be reacted with primary amines (−NH2) on the coverslips or at the end of the peptide sequences to form amide crosslinks. For the carboxyl modified coverslips, the final peptide grafted on to the surface via its NH2 terminus was in the form Glass-CO-NH-Peptide. For the amine modified coverslips, the final peptide grafted on to the surface via its COOH terminus was in the form Glass-NH-CO-Peptide. The concentration of the peptides across the glass was approximately […]. Uncoated glass was used as the reference control. Treatments were in triplicate (i.e. n = 3). The cells used were human marrow derived mesenchymal stem cells (hMSCs, Lonza, Slough, UK, cat No PT-2507). In the EPL001-terminus study they were seeded at 10,000 cells per well; in the alanine substitution study the density was 5,000 cells per well. The cells were maintained in DMEM with 10% FSC. EPL001 and three alanine-substituted versions of it were deployed separately: MKPLTGKVKEFNNI (EPL001), AAAAAGKVKEFNNI (EPL590), MKPLTAAAAEFNNI (EPL545) and MKPLTGKVKEAAAA (EPL104). The peptides in the alanine substitution study were N-terminally tethered to the substrate. Cell numbers were measured by CyQuant® (Invitrogen, Paisley, UK). […] Statistical analysis was by ANOVA using SPSS software.
Four 14-aa peptides were synthesised: MKPLTGKVKEFNNI (EPL001), AAAAAGKVKEFNNI (EPL590), MKPLTAAAAEFNNI (EPL545) and MKPLTGKVKEAAAA (EPL104). The peptides were generated from l-isomer amino acids by solid phase peptide synthesis (Model 9050, Milligen). All peptides were N-terminally tethered to the substrate by a bioconjugate technique. MSCs were derived from human bone marrow and maintained in DMEM with 10% FSC. Cells were seeded on peptide treated surfaces including a glass control in a 24-well plate with cell density 5 x 10^3. The growth inhibitory activity was examined via cell proliferation assays and cell cycle analysis, using PI and Ki-67 staining. The cell phenotype and viability (7-AAD) were analysed by flow cytometry.

LNCaP cells = assay: MTS viable cell assay, LNCaP (Epistem); type: cell-based, human; conditions: over 72h, single dose level
Method: Further assays on human prostate cancer cells were conducted at a contract research organisation (Epistem, Manchester, UK). LNCaP or DU145 cells seeded at 3,000 cells/well across a 96-well plate were cultured in RPMI (phenol red free), 10% FCS, 1% sodium pyruvate, Pen/strep and L-glutamine for 24h before exposure to peptides, at a single dose level in the case of LNCaPs or multiple dose levels in the case of DU145s. (For dose levels see Results.) Controls received vehicle (1% PBS). For the DU145s peptide administration was repeated after 24h. 72h after the first administration (DU145s) or only administration (LNCaP) total viable cell numbers were measured colorimetrically (MTS) using a CellTiter 96 AQueous One Solution Cell Proliferation Assay (Promega, Southampton, UK), following manufacturer’s instructions. Briefly, the media on the plates was replaced with the CellTiter reagent diluted 1:5 in DMEM. The plates were returned to the incubator for 3 hours before reading absorbance at 492 nm on a FLUORstar OPTIMA (BMG Labtech). CellTiter data are the absorbance minus background values (CellTiter plus DMEM), expressed as (OD mean +/− SEM). Statistical analysis was by ANOVA, Dunnett’s multiple comparisons test.

Steinernema siamkayai [2] = assay: Steinernema siamkayai reproduction and development on lipid agar plates with hexapeptides; type: in vivo; parameters: key to Infective juveniles / Adults: counts per plate, scaled from 0.05 ml subsamples to 20 ml; conditions: for Infective juveniles / Adults: S3 Table 2
From the text: (§1) The attempt was made here to replicate prior fecundity work in another species of nematode, the entomopathogenic (insect slaying) Steinernema siamkayai. Species confirmation involved standard morphological and molecular techniques (S3 File, Nematodes). S. siamkayai is a biocontrol agent of potential economic significance in global agriculture, reducing the need for pesticides. Crucial for deployment is the production of ‘infective juveniles’. These forms penetrate the larvae of insect pests, releasing a bacterium, Xenorhabdus spp., which ultimately kills the larvae. Stock solutions (5 mg mL^-1) of EPL036 (IEPVFT) and EPL630 (KLKMNG) were made up and stored at −20 °C. Lipid Agar plates were prepared by pouring 5 ml media in 60 mm plastic Petri dishes. The plates were inoculated with an overnight-grown bacterial culture of Xenorhabdus spp. (10^9 cfu/ml) at 100 μl/plate and incubated at 28 °C for 24h. Xenorhabdus bacteria are symbiotically associated with S. siamkayai. While multiplying, Xenorhabdus metabolises the constituents of the lipid agar and the resulting by-products are the food supplement for the nematodes that triggers the worms to grow and multiply. From the stock solutions, peptides were introduced individually into the centre of the Lipid Agar plates with Xenorhabdus lawn. Two concentrations of peptide were used, 4 and 8 μL of the 5 mg mL^-1 stock peptide solutions (making 20 and 40 μg of peptide per plate in total, respectively, i.e. ~6 and ~12 μM). Each peptide solution was uniformly spread using an L shaped spreader and allowed to absorb into the agar plate for 10 minutes. Nematodes were harvested beforehand as follows. Third-stage infective juveniles (IJs) of S. siamkayai were used to infect fourth instar Galleria larvae. Following larval death, the Galleria cadavers were placed on a White’s Trap to harvest fresh progeny within 5–6 days. After storage in sterile water, these new-generation IJs were concentrated and inoculated on the bacterial plates on Day 1 at 500 and 1000 IJs /plate. The eight treatments (two inocula at two peptide concentrations) and two controls (two inocula without peptides) were replicated (x3) and incubated at 28 °C. Observations of behaviour and morphology were made at intervals throughout the study, then on Day 5 (i.e. after 4 units of 24h) the nematodes were harvested. Two ml of distilled water was poured on each Petri dish and gently stirred to release the nematodes from the surface. The surface washings containing suspended nematodes were collected in a standard volume of 20 ml of distilled water. The number of mature adults (male and female) and the second-generation juveniles (J1, J2, J3 and pre-adults) were counted using a dissecting microscope (x10 magnification, 4 fields) in 0.05 ml subsamples (x3) and multiplied up to the standard volume of 20 ml.
Fig 2 Developmental impact on Steinernema siamkayai of hexapeptides after 4 days. INOCULUM = founding population of infective juveniles (IJs). ‘Infective juveniles’ on the vertical axis are mostly second-generation IJs. Peptides applied at the start of the study were EPL036 = IEPVFT, […] = KLKMNG. Total = Adults + Infective juveniles. Data are mean +/- SEM (average of 3 replicates). Statistical analysis: ANOVA. Control bars are doubly represented for ease of comparison. Note different vertical axes. […]

Steinernema siamkayai [3] = assay: Nematode pilot study fecundity (S3 Table 1); type: in vivo; conditions: inoculum 5 IJs
From the text: as §1
Mean number of A) Infective juveniles and B) Adults following inoculation of Petri dishes treated with EPL036 and EPL630 at 4 µL and 8 µL and an untreated control; Petri dishes were initially inoculated with 5 infective juveniles of Steinernema siamkayai following the method used in the main manuscript (Single way ANOVA presented beneath each data set).

Caenorhabditis elegans = conditions: cited from earlier work
From the text: As a control compound there was synthesized EPL030, having the aa sequence KLKMNGKNIEPVFT. This is a scrambling of EPL001’s sequence, based on cards drawn at random by one of us (CRM). […] The figures for fecundity were EPL001 +43 ... || Returning to EPL030, the scrambled-sequence EPL001 comparator, this has engendered perplexity by displaying the same activity as EPL001 across multiple mammalian systems. Thus, EPL030 suppressed human prostate cancer cells in vitro more than EPL001 in two laboratories and the proliferation of rat bone marrow cells in vitro in a third.

rat bone marrow cells = assay: Bone marrow cell assay, time-lapse cell counts over 24h; type: cell-based; conditions: 1μM final concentration, in words (Fig 7)
Method: The method has been described previously at length. Bone marrow cells, consisting of various cell types including mesenchymal stem cells and fibroblasts, were cultured from adult male rats (Rattus norvegicus, SD strain). These cells were passaged from a growing primary stock in a T75 tissue culture flask (Sarstedt) into a 48 well tissue culture plate (IWAKI), with a cell density of 1 x 10^5/ml. The cell culture media, henceforth referred to as ‘supplemented a-MEMS,’ comprised α-MEMS media supplemented with 10% FCS and 1% penicillin/streptomycin (all Life Technologies, Carlsbad, CA, US). On the day of peptide addition to the cells, the supplemented α-MEMS was gently removed and fresh supplemented α-MEMS added, with 10% test material by volume to achieve micromolar concentrations, untreated controls receiving just fresh supplemented α-MEMS. (For dose levels see legends in respective result figures) All samples were filter sterilised using a Millex-GV […] syringe filter unit (Merck, Kenilworth, NJ, USA). The cells were imaged for 24 h using an incubated Zeiss Axiovert 135M microscope with a Prior Proscan II motorised stage, at 37 °C with a 5% CO2 in air feed. Each well of the 48-well tissue culture plate was then imaged for 24h every 5 min using Metamorph software (MDS Analytical Technologies, Wokingham, UK), with each well having four fields of view. The viability and cell numbers were reviewed by analysing the images captured over the 24h period and cell counts were taken at selected time points using the Metamorph software.
Fig 6 Bone marrow cells in culture exposed to long peptides. Cells were counted over 24h after exposure to the 14mer peptide EPL001 or its scrambled-sequence control EPL030 at 6μM final concentration or to the 20mer EPL120 at 5μM final concentration, compared to peptide-untreated controls.
Fig 7 Bone marrow cells in culture exposed to hexapeptides. Cells were counted over 24h after exposure to either EPL016 (= MKPLTG, the ‘Front 6’ of the 14mer EPL001) or EPL036 (= IEPVFT, the ‘Back 6’ of EPL030, the scrambled-sequence control of EPL001) at 1μM final concentration, compared to peptide-untreated controls.

[4] = 4 µL, inoculum 1000, mean of 3 reps
[5] = 8 µL, inoculum 1000, mean of 3 reps

AAAAAGKVKEFNNI [EPL590, Substituted EPL001; alanines 1–5]
Cell number vs Glass ([1]; Day 7): 16%
Cell number vs Glass ([1]; Day 14): −23%
Mean cell number ([1]; Day 7): 11,805 +/−4,028
Mean cell number ([1]; Day 14): 20,347 +/−2,264
Reduction in test mean OD versus the vehicle control mean (LNCaP cells): −21.4%

IEPVFT [EPL036, IEPVFT, EPL030 Back 6]
Infective juveniles (Steinernema siamkayai [2]; 4 µL, inoculum 500, mean of 3 reps): 7482
Adults (Steinernema siamkayai [2]; [4]): 446
Infective juveniles (Steinernema siamkayai [2]; [4]): 13686
Infective juveniles (Steinernema siamkayai [2]; 8 µL, inoculum 500, mean of 3 reps): 9644
Adults (Steinernema siamkayai [2]; [5]): 10
Infective juveniles (Steinernema siamkayai [2]; [5]): 19161
Infective juveniles (Steinernema siamkayai [2]; 8 µL, inoculum 1000, rep 1): 19141
Infective juveniles (Steinernema siamkayai [2]; 8 µL, inoculum 1000, rep 2): 19149
Infective juveniles (Steinernema siamkayai [2]; 8 µL, inoculum 1000, rep 3): 19193
Egg production in females (Steinernema siamkayai [2]; compared with untreated controls, 48h exposure (Fig 3)): visibly bloated with eggs
Time after incubation to fully grown males and females (Steinernema siamkayai [2]; observational): 36 h
Time for infective juveniles to transform into pre-adults (Steinernema siamkayai [2]; observational): ≤ 24 h
Adults (Steinernema siamkayai [3]; 4 µL, mean of 9 reps): 1.7
Infective juveniles (Steinernema siamkayai [3]; 4 µL, mean of 9 reps): 43.2
Adults (Steinernema siamkayai [3]; 4 µL, rep 1): 1
Adults (Steinernema siamkayai [3]; 4 µL, rep 2): 1
Adults (Steinernema siamkayai [3]; 4 µL, rep 3): 2
Adults (Steinernema siamkayai [3]; 4 µL, rep 4): 1
Adults (Steinernema siamkayai [3]; 4 µL, rep 5): 2
Adults (Steinernema siamkayai [3]; 4 µL, rep 6): 2
Adults (Steinernema siamkayai [3]; 4 µL, rep 7): 2
Adults (Steinernema siamkayai [3]; 4 µL, rep 8): 2
Adults (Steinernema siamkayai [3]; 4 µL, rep 9): 2
Adults (Steinernema siamkayai [3]; 8 µL, mean of 9 reps): 0
Infective juveniles (Steinernema siamkayai [3]; 8 µL, mean of 9 reps): 75.8
Adults (Steinernema siamkayai [3]; 8 µL, rep 1): 0
Adults (Steinernema siamkayai [3]; 8 µL, rep 2): 0
Adults (Steinernema siamkayai [3]; 8 µL, rep 3): 0
Adults (Steinernema siamkayai [3]; 8 µL, rep 4): 0
Adults (Steinernema siamkayai [3]; 8 µL, rep 5): 0
Adults (Steinernema siamkayai [3]; 8 µL, rep 6): 0
Adults (Steinernema siamkayai [3]; 8 µL, rep 7): 0
Adults (Steinernema siamkayai [3]; 8 µL, rep 8): 0
Adults (Steinernema siamkayai [3]; 8 µL, rep 9): 0
Increase in cumulative offspring vs untreated controls (Caenorhabditis elegans): +79%
Effect on bone marrow cells in culture (rat bone marrow cells): cytostatic
